According to PubChem BioAssay (NCI):
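Dose response: 5 concentrations. Exposure: 48 h. Format: 96-well plates. Endpoint: linear interpolation; highest concentration if not reached. TGI: concentration producing complete growth inhibition.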

Experiments:
Assay in all cases: NCI anticancer screen, dose series, 48 h
[1] = tested on: MDA-N
[2] = tested on: SN12C renal
[3] = tested on: NCI-H460 lung
[4] = tested on: K-562 leukemia
[5] = tested on: HT29 colon
[6] = tested on: SNB-75 CNS
[7] = tested on: ACHN renal
[8] = tested on: RPMI-8226 leukemia
[9] = tested on: OVCAR-4 ovarian
[10] = tested on: HL-60(TB) leukemia

Measured: TGI

O=C(Cc1ccc2ccccc2c1)NCc1ccc(C(=O)NCCc2ccccc2)cc1
not listed: [10]
> 100 µM: all other assays above

COC1OC2COC1(OCc1ccccc1)C1OC(C)(C)OC21 (stereo unspecified)
not listed: [10]
> 100 µM: all other assays above

COc1ccc(S(=O)(=O)Nc2ccc(-c3csc(N4C(=O)/C(=C/c5ccccc5[N+](=O)[O-])N=C4c4ccccc4)n3)cc2)cc1Cl
not listed: [8]
> 100 µM: all other assays above

COc1ccc(CCN2CCN(CCCc3ccccc3)CC2)cc1
not listed: [6]
> 100 µM: all other assays above

ClCc1nc2ccccc2[nH]1
not listed: [1]
> 100 µM: all other assays above

Fc1cc(C2=Nn3c(COc4ccccc4Cl)nnc3S/C2=C\c2ccc(Cl)cc2)c(Cl)cc1Cl
6.23 µM: [1]
39.1 µM: [7]
> 100 µM: [3] | [4] | [5] | [8]
35.9 µM: [9]
68.4 µM: [10]

CC(C)(C)C1=C(Br)C(F)(C(C)(C)C)OP1(=O)c1ccccc1 (stereo unspecified)
35.6 µM: [3]
22.9 µM: [4]
23 µM: [9]
16.2 µM: [10]
35 µM: [5]
30.9 µM: [6]
29.5 µM: [2]
34.7 µM: [1]
30 µM: [7]

Cc1ccc(S(=O)(=O)n2cc(C=O)c(-c3cn(S(=O)(=O)c4ccc(C)cc4)cc3-c3cn(S(=O)(=O)c4ccc(C)cc4)cc3C=O)c2)cc1
not listed: [7] | [9]
> 100 µM: all other assays above

O=P1(c2ccccc2)C(c2ccccc2)CCC1c1ccccc1 (stereo unspecified)
78.2 µM: [8]
43.4 µM: [10]
> 100 µM: [1] | [2] | [4] | [6]

Cc1nc2c(c(N3CCN(C)CC3)n1)Cc1ccccc1-2
47.4 µM: [3]
not listed: [2] | [9]
> 100 µM: all other assays above

C=C1C(C(=O)OC)[C@H]1C(=O)OC (stereo partly specified)
not listed: [4]
> 100 µM: all other assays above

COc1ccc(/C=C2\N=C(N3CCCC(CO)C3)NC2=O)cc1 (stereo unspecified)
not listed: [3] | [4]
> 100 µM: all other assays above
